Results reported in US9085555B2, “Complement pathway modulators and uses thereof” (priority 2011, dated 2015).

The compounds below were run against Factor D (Homo sapiens (Human), UniProt P00746) (assay: biochemical). Settings: not given.
Type: biochemical

Chain of Factor D (P00746 26-253): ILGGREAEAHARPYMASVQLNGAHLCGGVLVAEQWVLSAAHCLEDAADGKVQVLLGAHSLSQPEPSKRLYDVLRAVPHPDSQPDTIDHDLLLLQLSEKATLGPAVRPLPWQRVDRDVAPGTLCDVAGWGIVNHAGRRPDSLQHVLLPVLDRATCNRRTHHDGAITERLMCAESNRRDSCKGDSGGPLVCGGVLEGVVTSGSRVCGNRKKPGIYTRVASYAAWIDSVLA

Compound | IC50 [nM]
NC(=O)n1cc(NC(=O)N2C[C@@H](N)C[C@H]2C(=O)NC[C@H]2CCCC[C@@H]2O)c2ccccc21 (relative stereo) [Example 75, (2S,4S)-4-Amino-pyrrolidine-1,2-dicarboxylic acid 1-[(1-carbamoyl-1H-indol-3-yl)-amide] 2-[((1R*,2S*)-2-hydroxy-cyclohexylmethyl)-amide]] | 12600
NC(=O)n1cc(NC(=O)N2C[C@H]3C[C@H]3[C@H]2C(=O)NCc2cccc(Cl)c2)c2ccccc21 (relative stereo) [Example 167, (1R*,2S*,5S*)-3-Aza-bicyclo[3.1.0]hexane-2,3-dicarboxylic acid 3-[(1-carbamoyl-1H-indol-3-yl)-amide] 2-(3-chloro-benzylamide)] | 108
NC(=O)n1cc(NC(=O)N2C[C@@H]3C[C@@H]3[C@H]2C(=O)NCc2cccc(Cl)c2F)c2cc(OCCO)ccc21 (relative stereo) [Example 382, 1S*,2S*,5R*)-3-Aza-bicyclo[3.1.0]hexane-2,3-dicarboxylic acid 3-{[1-carbamoyl-5-(2-hydroxy-ethoxy)-1H-indol-3-yl]-amide}2-(3-chloro-2-fluoro-benzylamide] | 184
NC(=O)n1cc(CC(=O)N2C[C@@H]3C[C@@H]3[C@H]2C(=O)NCc2cccc(Cl)c2F)c2cc(OCCO)ccc21 (relative stereo) [Example 465, 3-{2-[(1S*,2S*,5R*)-2-(3-Chloro-2-fluoro-benzylcarbamoyl)-3-aza-bicyclo[3.1.0]hex-3-yl]-2-oxo-ethyl}-5-(2-hydroxy-ethoxy)-indole-1-carboxylic acid amide] | 1590

Same assay, conditions: read-out: IC50

Compound | IC50 [nM]
2S,3R)-3-(2-Methoxy-ethylamino)-pyrrolidine-1,2-dicarboxylic acid 1-[(1-carbamoyl-1H-indol-3-yl)-amide]2-(3-chloro-2-fluoro-benzylamide [Example 423] | 780
2S,3R)-3-Acetylamino-pyrrolidine-1,2-dicarboxylic acid 1-[(1-carbamoyl-1H-indol-3-yl)-amide]2-(3-chloro-2-fluoro-benzylamide [Example 422] | 888
NC(=O)n1cc(NC(=O)N2C[C@H](F)C[C@H]2C(=O)NC2CCOc3ccc(Cl)cc32)c2ccccc21 (mixture of isomers) [Example 326, (2S,4R)-4-Fluoro-pyrrolidine-1,2-dicarboxylic acid 1-[(1-carbamoyl-1H-indol-3-yl)-amide] 2-[(6-chloro-chroman-4-yl)-amide] (mixture of 2 diastereomers)] | 7150
NC(=O)n1cc(NC(=O)N2N=CCC2C(=O)NCc2cccc(Cl)c2F)c2ccccc21 (racemic) [Example 201, 4,5-Dihydro-pyrazole-1,5-dicarboxylic acid 1-[(1-carbamoyl-1H-indol-3-yl)-amide] 5-(3-chloro-2-fluoro-benzylamide)] | 20
NC(=O)n1cc(NC(=O)N2N=CC[C@H]2C(=O)NCc2cccc(Cl)c2F)c2ccccc21 (single isomer, unassigned) [Example 362, S^§)-4,5-Dihydro-pyrazole-1,5-dicarboxylic acid 1-[(1-carbamoyl-1H-indol-3-yl)-amide]5-(3-chloro-2-fluoro-benzylamide] | 5
NC(=O)n1cc(NC(=O)N2N=CC[C@@H]2C(=O)NCc2cccc(Cl)c2F)c2ccccc21 (single isomer, unassigned) [Example 363, R^§)-4,5-Dihydro-pyrazole-1,5-dicarboxylic acid 1-[(1-carbamoyl-1H-indol-3-yl)-amide]5-(3-chloro-2-fluoro-benzylamide] | 9250
C[C@@H](NC(=O)[C@@H]1[C@H](O)CCN1C(=O)Nc1cn(C(N)=O)c2ccccc12)c1cccc(Cl)c1F (single isomer, unassigned) [Example 364] | 900
C[C@H](NC(=O)[C@@H]1[C@H](O)CCN1C(=O)Nc1cn(C(N)=O)c2ccccc12)c1cccc(Cl)c1F (single isomer, unassigned) [Example 365] | 45
COC(=O)C(NC(=O)[C@@H]1C[C@H](N)CN1C(=O)Nc1cn(C(N)=O)c2ccccc12)C(C)C (stereo in doubt) [Example 94, (R)-2-{[(2S,4S)-4-Amino-1-(1-carbamoyl-1H-indol-3-ylcarbamoyl)-pyrrolidine-2-carbonyl]-amino}-3-methyl-butyric acid methyl ester] | 11000
NC(=O)n1cc(NC(=O)N2C[C@H](F)C[C@H]2C(=O)NCc2cccc(Cl)c2F)c2ccccc21 [Example 1] | 7
NC(=O)n1cc(NC(=O)N2C[C@H](F)C[C@H]2C(=O)NCc2ccccc2)c2ccccc21 [Example 2, (2S,4R)-4-Fluoro-pyrrolidine-1,2-dicarboxylic acid 2-benzylamide 1-[(1-carbamoyl-1H-indol-3-yl)-amide]] | 25
NC(=O)n1cc(NC(=O)N2C[C@H](F)C[C@H]2C(=O)NCc2cccnc2)c2ccccc21 [Example 3, (2S,4R)-4-Fluoro-pyrrolidine-1,2-dicarboxylic acid 1-[(1-carbamoyl-1H-indol-3-yl)-amide] 2-[(pyridin-3-ylmethyl)-amide]] | 450
COCCN(C)Cc1cc(Cl)c(F)c(CNC(=O)[C@@H]2C[C@@H](F)CN2C(=O)Nc2cn(C(N)=O)c3ccccc23)c1 [Example 4, (2S,4R)-4-Fluoro-pyrrolidine-1,2-dicarboxylic acid 1-[(1-carbamoyl-1H-indol-3-yl)-amide] 2-(3-chloro-2-fluoro-5-{[(2-methoxy-ethyl)-methyl-amino]-methyl}-benzylamide)] | 3980
NC(=O)n1cc(NC(=O)N2C[C@H](F)C[C@H]2C(=O)N[C@H](CO)c2cccc(Cl)c2F)c2ccccc21 [Example 5, (2S,4R)-4-Fluoro-pyrrolidine-1,2-dicarboxylic acid 1-[(1-carbamoyl-1H-indol-3-yl)-amide] 2-{[(S)-1-(3-chloro-2-fluoro-phenyl)-2-hydroxy-ethyl]-amide}] | 30
NC(=O)n1cc(NC(=O)N2C[C@H](F)C[C@H]2C(=O)NCc2ccncc2)c2ccccc21 [Example 6, (2S,4R)-4-Fluoro-pyrrolidine-1,2-dicarboxylic acid 1-[(1-carbamoyl-1H-indol-3-yl)-amide] 2-[(pyridin-4-ylmethyl)-amide]] | 2100
NC(=O)n1cc(NC(=O)N2C[C@H](F)C[C@H]2C(=O)NCc2cccc(Cl)c2)c2ccccc21 [Example 8, (2S,4R)-4-Fluoro-pyrrolidine-1,2-dicarboxylic acid 1-[(1-carbamoyl-1H-indol-3-yl)-amide] 2-(3-chloro-benzylamide)] | 9
NC(=O)n1cc(NC(=O)N2C[C@H](F)C[C@H]2C(=O)NCc2cccc(O)c2)c2ccccc21 [Example 9, (2S,4R)-4-Fluoro-pyrrolidine-1,2-dicarboxylic acid 1-[(1-carbamoyl-1H-indol-3-yl)-amide] 2-(3-hydroxy-benzylamide)] | 250
CN1CCN(Cc2cc(Cl)c(F)c(CNC(=O)[C@@H]3C[C@@H](F)CN3C(=O)Nc3cn(C(N)=O)c4ccccc34)c2)CC1 [Example 10, (2S,4R)-4-Fluoro-pyrrolidine-1,2-dicarboxylic acid 1-[(1-carbamoyl-1H-indol-3-yl)-amide] 2-[3-chloro-2-fluoro-5-(4-methyl-piperazin-1-ylmethyl)-benzylamide]] | 604
NC(=O)n1cc(NC(=O)N2C[C@H](F)C[C@H]2C(=O)NCc2ccc(Cl)s2)c2ccccc21 [Example 11, (2S,4R)-4-Fluoro-pyrrolidine-1,2-dicarboxylic acid 1-[(1-carbamoyl-1H-indol-3-yl)-amide] 2-[(5-chloro-thiophen-2-ylmethyl)-amide]] | 7
CCN(CC)Cc1cc(Cl)c(F)c(CNC(=O)[C@@H]2C[C@@H](F)CN2C(=O)Nc2cn(C(N)=O)c3ccccc23)c1 [Example 12, (2S,4R)-4-Fluoro-pyrrolidine-1,2-dicarboxylic acid 1-[(1-carbamoyl-1H-indol-3-yl)-amide] 2-(3-chloro-5-diethylamino-methyl-2-fluoro-benzyl-amide)] | 11100
NC(=O)n1cc(NC(=O)N2C[C@H](F)C[C@H]2C(=O)N[C@H](CO)c2ccccc2)c2ccccc21 [Example 13, (2S,4R)-4-Fluoro-pyrrolidine-1,2-dicarboxylic acid 1-[(1-carbamoyl-1H-indol-3-yl)-amide] 2-[((S)-2-hydroxy-1-phenyl-ethyl)-amide]] | 139
CC[C@H](C)[C@H](NC(=O)[C@@H]1C[C@@H](F)CN1C(=O)Nc1cn(C(N)=O)c2ccccc12)C(=O)OC(C)(C)C [Example 15, (2S,3S)-2-{[(2S,4R)-1-(1-Carbamoyl-1H-indol-3-ylcarbamoyl)-4-fluoro-pyrrolidine-2-carbonyl]-amino}-3-methyl-pentanoic acid tert-butyl ester] | 1100
CN(C)CCN(C)Cc1cc(Cl)c(F)c(CNC(=O)[C@@H]2C[C@@H](F)CN2C(=O)Nc2cn(C(N)=O)c3ccccc23)c1 [Example 17, (2S,4R)-4-Fluoro-pyrrolidine-1,2-dicarboxylic acid 1-[(1-carbamoyl-1H-indol-3-yl)-amide] 2-(3-chloro-5-{[(2-dimethylamino-ethyl)-methyl-amino]-methyl}-2-fluoro-benzylamide)] | 4050
NC(=O)n1cc(NC(=O)N2C[C@H](F)C[C@H]2C(=O)NCc2cc(CN3CCOCC3)cc(Cl)c2F)c2ccccc21 [Example 18, (2S,4R)-4-Fluoro-pyrrolidine-1,2-dicarboxylic acid 1-[(1-carbamoyl-1H-indol-3-yl)-amide] 2-(3-chloro-2-fluoro-5-morpholin-4-ylmethyl-benzylamide)] | 815
COC1CCN(Cc2cc(Cl)c(F)c(CNC(=O)[C@@H]3C[C@@H](F)CN3C(=O)Nc3cn(C(N)=O)c4ccccc34)c2)CC1 [Example 20, (2S,4R)-4-Fluoro-pyrrolidine-1,2-dicarboxylic acid 1-[(1-carbamoyl-1H-indol-3-yl)-amide] 2-(3-chloro-2-fluoro-5-(4-methoxy-piperidin-1-ylmethyl)-benzylamide]] | 1130
NC(=O)n1cc(NC(=O)N2C[C@H](F)C[C@H]2C(=O)NCc2ccccc2C(=O)O)c2ccccc21 [Example 23, 2-({[(2S,4R)-1-(1-Carbamoyl-1H-indol-3-ylcarbamoyl)-4-fluoro-pyrrolidine-2-carbonyl]-amino}-methyl)-benzoic acid] | 1850
NC(=O)n1cc(NC(=O)N2C[C@H](F)C[C@H]2C(=O)NCc2cccc(C(=O)O)c2)c2ccccc21 [Example 24] | 1700
